Data as given in ChEMBL document CHEMBL1153451, “Novel aminopeptidase N inhibitors derived from antineoplaston AS2-5 (Part I)” (Bioorg Med Chem, 2009).
Active and inactive are the calls of the source. No cut-off for these calls is given here.

Tests used:
[1] = molecular target: 72 kDa type IV collagenase (Homo sapiens, UniProt P08253); experiment: Inhibition of MMP2 by spectrophotometry
[2] = molecular target: T1, Aminopeptidase N (Sus scrofa, UniProt P15145); experiment: (§1) Inhibition of pig kidney microsome aminopeptidase N by UV-visible spectrophotometer
T1 sequence (P15145 whole entry): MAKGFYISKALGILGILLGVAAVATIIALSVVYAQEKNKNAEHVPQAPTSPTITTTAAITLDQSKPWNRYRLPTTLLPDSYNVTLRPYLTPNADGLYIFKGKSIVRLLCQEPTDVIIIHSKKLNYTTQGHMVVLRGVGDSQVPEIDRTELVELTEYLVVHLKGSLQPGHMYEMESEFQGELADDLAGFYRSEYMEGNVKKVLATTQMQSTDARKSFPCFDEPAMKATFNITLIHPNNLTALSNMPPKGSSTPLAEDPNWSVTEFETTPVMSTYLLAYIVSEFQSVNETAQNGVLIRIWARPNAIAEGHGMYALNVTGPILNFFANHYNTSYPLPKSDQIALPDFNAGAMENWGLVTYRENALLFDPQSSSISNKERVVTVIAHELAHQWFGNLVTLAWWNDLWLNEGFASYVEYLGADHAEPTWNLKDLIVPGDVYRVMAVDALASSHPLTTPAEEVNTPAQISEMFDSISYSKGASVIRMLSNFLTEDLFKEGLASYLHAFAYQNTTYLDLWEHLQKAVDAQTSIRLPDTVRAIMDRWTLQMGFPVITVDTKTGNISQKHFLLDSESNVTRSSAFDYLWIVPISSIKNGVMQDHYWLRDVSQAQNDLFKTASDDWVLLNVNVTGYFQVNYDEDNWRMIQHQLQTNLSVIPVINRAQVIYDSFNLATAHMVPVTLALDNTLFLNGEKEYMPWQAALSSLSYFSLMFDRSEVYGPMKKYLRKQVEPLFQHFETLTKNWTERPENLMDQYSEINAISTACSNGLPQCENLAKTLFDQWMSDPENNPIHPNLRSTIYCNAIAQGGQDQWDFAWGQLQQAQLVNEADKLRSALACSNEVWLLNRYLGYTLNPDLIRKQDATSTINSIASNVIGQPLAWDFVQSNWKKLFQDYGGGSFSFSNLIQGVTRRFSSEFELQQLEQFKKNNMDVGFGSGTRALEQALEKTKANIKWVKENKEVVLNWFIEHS

[3] = molecular target: T2, Aminopeptidase N (Sus scrofa) (UniProt P15145); experiment: as §1
T2 sequence (whole entry): T1 sequence (P15145 whole entry)

IC50 [1] [µM]	IC50 [2] [µM]	Activity [1]	Activity [3]	Compound
71.2	65.8			COc1cc(C(=O)N[C@H](CCC(=O)O)C(=O)Nc2ccc(C(=O)O)cc2)cc(OC)c1OC
		inactive	inactive	COc1cc(C(=O)N[C@H](CCC(=O)O)C(=O)Nc2ccc([N+](=O)[O-])cc2)cc(OC)c1OC
55.3	40.1			COc1cc(C(=O)N[C@H](CCC(=O)O)C(=O)Nc2ccc(S(=O)(=O)Nc3nccs3)cc2)cc(OC)c1OC
26.1	24.3			COc1cc(C(=O)N[C@H](CCC(=O)O)C(=O)Nc2ccc(F)cc2)cc(OC)c1OC
169	87.7			COc1cc(C(=O)N[C@H](CCC(=O)O)C(=O)NNC(=O)c2nccs2)cc(OC)c1OC
115	72.4			COc1cc(C(=O)N[C@H](CCC(=O)O)C(=O)NNC(=O)c2cccnc2)cc(OC)c1OC
287	177			COc1cc(C(=O)N[C@H](CCC(=O)O)C(=O)NCc2cccc(Br)c2)cc(OC)c1OC
122	80.4			COc1cc(C(=O)N[C@H](CCC(=O)O)C(=O)Nc2cc(Cl)ccc2Cl)cc(OC)c1OC
86.3	57.8			COc1cc(C(=O)N[C@H](CCC(=O)O)C(=O)Nc2ccc(C(=O)O)c(O)c2)cc(OC)c1OC
52.8	45.6			COc1cc(C(=O)N[C@H](CCC(=O)O)C(=O)NCc2ccc(Cl)cc2F)cc(OC)c1OC
76.1	51.2			COc1cc(C(=O)N[C@H](CCC(=O)O)C(=O)NCc2ccc(Br)cc2F)cc(OC)c1OC
40.5				CC(C)C[C@H](NC(=O)[C@@H](O)[C@H](N)Cc1ccccc1)C(=O)O [UBENIMEX]
52.3	40			COc1cc(C(=O)N[C@H](CCC(=O)O)C(=O)Nc2ccc(Cl)cc2)cc(OC)c1OC
33.6	23.4			COc1cc(C(=O)N[C@H](CCC(=O)O)C(=O)Nc2ccc(N)cc2)cc(OC)c1OC
54.4	41.9			COc1cc(C(=O)N[C@H](CCC(=O)O)C(=O)Nc2ccc(Br)cc2)cc(OC)c1OC
628	103			COc1cc(C(=O)N[C@H](CCC(=O)O)C(=O)Nc2ccc(S(N)(=O)=O)cc2)cc(OC)c1OC
660	104			COc1cc(C(=O)NC2CCC(=O)N(c3ccccc3N)C2=O)cc(OC)c1OC (stereo not drawn)
369	108			COc1cc(C(=O)N[C@H](CCC(=O)O)C(=O)Nc2nccs2)cc(OC)c1OC
76.8	65.9			COc1cc(C(=O)N[C@H](CCC(=O)O)C(=O)NCc2cccc(I)c2)cc(OC)c1OC
107	78.5			COc1cc(C(=O)N[C@H](CCC(=O)O)C(=O)Nc2ccc(F)c(Cl)c2)cc(OC)c1OC
501	805			COc1cc(C(=O)N[C@H](CCC(=O)O)C(=O)NCCCl)cc(OC)c1OC
109	89.6			COc1cc(C(=O)N[C@H](CCC(=O)O)C(=O)Nc2ccc(F)cc2F)cc(OC)c1OC
